Test results: patent US12070464B2, “Methods of treating myeloproliferative disorders” (priority 2019, dated 2024)
Read-outs that look alike come from different tables or passages of the source.

Assays:
[1] = system: CD34+ cells isolated from the bone marrow of two healthy donors; assay: Megakaryocyte differentiation and proliferation, alone and with ruxolitinib, 10 days (FACS); type: cell-based; details: 240 h
From the text: The cells were then harvested for FACS analysis with live/dead stain and gating with CD34 (progenitor marker) and CD41a and CD42b (mature megakaryocyte markers).

myelofibrosis patients = details: cited from earlier work

N#CC[C@H](C1CCCC1)n1cc(-c2ncnc3[nH]ccc23)cn1 [Ruxolitinib, (R)-3-(4-(7H-pyrrolo[2,3-d]pyrimidin-4-yl)-1H-pyrazol-1-yl)-3-cyclopentylpropanenitrile phosphate, reference compound]
EC50 ([1]; 10 days, Donor 1, percent of cells double positive for CD41a and CD42b, read-out: Megakaryocyte differentiation EC50): 517 nM | EC50 ([1]; 10 days, Donor 1, read-out: Megakaryocyte live count EC50): 312 nM | EC50 ([1]; 10 days, Donor 1, read-out: Total live count EC50): 288 nM | EC50 ([1]; 10 days, Donor 1, read-out: Viability EC50): 676 nM | EC50 ([1]; 10 days, Donor 2, percent of cells double positive for CD41a and CD42b, read-out: Megakaryocyte differentiation EC50): 535 nM | EC50 ([1]; 10 days, Donor 2, read-out: Megakaryocyte live count EC50): 258 nM | EC50 ([1]; 10 days, Donor 2, read-out: Total live count EC50): 259 nM | EC50 ([1]; 10 days, Donor 2, read-out: Viability EC50): 611 nM | EC50 ([1]; 10 days, Mean of two donors, read-out: Megakaryocyte differentiation EC50): 526 nM | EC50 ([1]; 10 days, Mean of two donors, read-out: Megakaryocyte live count EC50): 285 nM | EC50 ([1]; 10 days, Mean of two donors, read-out: Viability EC50): 644 nM | EC50 ([1]; read-out: Total live count EC50 (overall cell proliferation)): 274 nM | effect on mutant allele burden and bone marrow fibrosis (myelofibrosis patients; Curr Hematol Malig Rep 2017): does not affect the mutant allele burden or bone marrow fibrosis | effect on red blood cell production and hemoglobin levels (myelofibrosis patients; in vivo): known to decrease red blood cell production and hemoglobin levels
